Starred links: 1 amine or outer side, 2 acyl side, 3 side chain; linkers in the order of their positions; H or OH if unused. Positions of bridges follow the written chain, without caps; N, C: chain ends. Non-standard residues stand in square brackets, D forms with d. Residues, ends and D or L forms follow the SMILES beside them. Trp(7-aza) = N[C@@H](Cc1c[nH]c2ncccc12)C(=O)O; mXylylene = c1cc(C[*:1])cc(C[*:2])c1; Phg = N[C@H](C(=O)O)c1ccccc1; Tle = CC(C)(C)[C@H](N)C(=O)O; NMeS = CN[C@@H](CO)C(=O)O; Nva = CCC[C@H](N)C(=O)O; Sar = CNCC(=O)O
Biological target: C5 (Homo sapiens, UniProt P01031)
Sequence (P01031 19-1676): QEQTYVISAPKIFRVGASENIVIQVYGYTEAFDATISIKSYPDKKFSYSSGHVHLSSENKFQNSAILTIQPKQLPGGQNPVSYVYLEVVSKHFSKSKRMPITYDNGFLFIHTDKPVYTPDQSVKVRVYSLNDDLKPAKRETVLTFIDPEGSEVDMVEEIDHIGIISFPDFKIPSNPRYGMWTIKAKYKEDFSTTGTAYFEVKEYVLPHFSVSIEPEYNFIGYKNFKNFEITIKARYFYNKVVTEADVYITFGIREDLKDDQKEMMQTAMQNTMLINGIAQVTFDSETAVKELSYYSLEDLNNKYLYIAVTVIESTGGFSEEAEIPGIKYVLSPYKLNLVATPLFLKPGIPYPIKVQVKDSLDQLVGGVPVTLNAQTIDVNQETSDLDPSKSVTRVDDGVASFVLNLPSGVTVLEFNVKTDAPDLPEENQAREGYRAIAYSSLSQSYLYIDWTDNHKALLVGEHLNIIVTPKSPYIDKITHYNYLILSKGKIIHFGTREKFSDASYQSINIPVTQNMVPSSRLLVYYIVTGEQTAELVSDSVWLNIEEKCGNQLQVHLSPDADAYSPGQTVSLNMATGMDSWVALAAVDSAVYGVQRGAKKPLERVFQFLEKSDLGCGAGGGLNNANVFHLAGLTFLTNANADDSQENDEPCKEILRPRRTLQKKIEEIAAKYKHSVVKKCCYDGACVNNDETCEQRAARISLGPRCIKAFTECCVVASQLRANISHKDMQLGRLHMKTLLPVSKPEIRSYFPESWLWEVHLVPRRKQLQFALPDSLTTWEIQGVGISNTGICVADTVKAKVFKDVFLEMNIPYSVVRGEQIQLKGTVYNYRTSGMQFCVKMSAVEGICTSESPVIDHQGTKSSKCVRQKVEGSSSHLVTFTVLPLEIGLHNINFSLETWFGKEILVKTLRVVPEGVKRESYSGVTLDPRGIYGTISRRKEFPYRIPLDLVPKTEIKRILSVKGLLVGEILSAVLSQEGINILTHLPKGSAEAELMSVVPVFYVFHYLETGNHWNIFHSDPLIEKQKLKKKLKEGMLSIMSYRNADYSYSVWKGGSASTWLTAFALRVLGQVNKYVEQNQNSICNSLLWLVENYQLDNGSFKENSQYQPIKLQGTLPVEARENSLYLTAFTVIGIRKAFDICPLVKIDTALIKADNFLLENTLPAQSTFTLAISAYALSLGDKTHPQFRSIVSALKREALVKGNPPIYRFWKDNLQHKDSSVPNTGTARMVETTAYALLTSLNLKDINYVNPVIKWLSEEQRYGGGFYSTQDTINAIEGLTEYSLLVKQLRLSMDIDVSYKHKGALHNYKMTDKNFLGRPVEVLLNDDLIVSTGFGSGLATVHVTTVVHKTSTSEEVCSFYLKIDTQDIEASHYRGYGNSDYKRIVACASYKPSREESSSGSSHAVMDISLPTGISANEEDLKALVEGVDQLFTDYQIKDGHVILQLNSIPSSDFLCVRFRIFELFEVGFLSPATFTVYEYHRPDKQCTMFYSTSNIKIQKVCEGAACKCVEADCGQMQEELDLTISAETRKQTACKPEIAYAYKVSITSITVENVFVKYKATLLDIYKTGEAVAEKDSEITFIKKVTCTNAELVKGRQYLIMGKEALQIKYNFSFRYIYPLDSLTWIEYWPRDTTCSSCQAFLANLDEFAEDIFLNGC
Assay: Human hemolysis assay (RBC lysis assay using complete human sera)
Type: cell-based
Parameters: with complete human sera (Complement Technology, Tyler Tex.) and polypeptides; tissue Complement Technology, Tyler Tex; host or cells: complete human serum
Settings: inhibition of lysis of antibody-sensitized sheep erythrocytes, complete human sera

Structure (SMILES)	IC50
CCC[C@H](NC(C)=O)C(=O)N[C@@H](CS)C(=O)N[C@@H](Cc1ccc(O)cc1)C(=O)N[C@@H](CCCCN)C(=O)N[C@@H](CC(N)=O)C(=O)N[C@@H](Cc1ccc(O)cc1)C(=O)N[C@@H](Cc1c[nH]cn1)C(=O)N[C@@H](Cc1c[nH]c2ncccc12)C(=O)N[C@@H](CCC(=O)O)C(=O)N[C@@H](Cc1ccc(O)cc1)C(=O)N1CCC[C@H]1C(=O)N[C@H](C(=O)N[C@@H](Cc1ccc(O)cc1)C(N)=O)C(C)(C)C [Compound R3000, Ac-Nvl-C-Y-K-N-Y-H-azaTrp-E-Y-P-Tbg-Y-NH2] (Ac-[Nva]CYKNYH[Trp(7-aza)]EYP[Tle]Y-NH2)	> 10000 nM
CCC[C@H](NC(C)=O)C(=O)N[C@@H](CS)C(=O)N[C@@H](Cc1ccc(O)cc1)C(=O)N[C@@H](CCC(=O)O)C(=O)N[C@@H](CC(N)=O)C(=O)N[C@H](C(=O)N[C@@H](Cc1ccc(O)cc1)C(=O)N[C@@H](Cc1c[nH]c2ncccc12)C(=O)N[C@@H](CCC(=O)O)C(=O)N[C@@H](Cc1ccc(O)cc1)C(=O)N(C)CC(=O)N[C@@H](CCC)C(=O)N(C)[C@@H](CO)C(N)=O)C(C)(C)C [Compound R3001, Ac-Nvl-C-Y-E-N-Tbg-Y-azaTrp-E-Y-(N-Me)G-Nvl-(N-Me)S-NH2] (Ac-[Nva]CYEN[Tle]Y[Trp(7-aza)]EY[Sar][Nva][NMeS]-NH2)	67.2 nM
CCC[C@H](NC(C)=O)C(=O)N[C@@H](CS)C(=O)N[C@@H](Cc1ccc(O)cc1)C(=O)N[C@@H](CC(N)=O)C(=O)N[C@@H](CC(N)=O)C(=O)N[C@H](C(=O)N[C@@H](CCC(=O)O)C(=O)N[C@@H](Cc1c[nH]c2ncccc12)C(=O)N[C@@H](CCC(=O)O)C(=O)N[C@@H](Cc1ccc(O)cc1)C(=O)N1CCC[C@H]1C(=O)N[C@H](C(=O)N[C@H](C(N)=O)C(C)(C)C)c1ccccc1)C(C)(C)C [Compound R3004, Ac-Nvl-C-Y-N-N-Tbg-E-azaTrp-E-Y-P-Phg-Tbg-NH2] (Ac-[Nva]CYNN[Tle]E[Trp(7-aza)]EYP[Phg][Tle]-NH2)	53.5 nM
CCC[C@H](NC(C)=O)C(=O)N[C@@H](CS)C(=O)N[C@@H](Cc1ccc(O)cc1)C(=O)N[C@@H](Cc1c[nH]c2ncccc12)C(=O)N(C)CC(=O)N[C@H](C(=O)N[C@@H](CCC)C(=O)N[C@@H](Cc1c[nH]c2ncccc12)C(=O)N[C@@H](CCC(=O)O)C(=O)N[C@@H](Cc1ccc(O)cc1)C(=O)N1CCC[C@H]1C(=O)N[C@H](C(=O)N1CCC[C@H]1C(N)=O)c1ccccc1)C(C)(C)C [Compound R3005, Ac-Nvl-C-Y-azaTrp-(N-Me)G-Tbg-Nvl-azaTrp-E-Y-P-Phg-P-NH2] (Ac-[Nva]CY[Trp(7-aza)][Sar][Tle][Nva][Trp(7-aza)]EYP[Phg]P-NH2)	66.7 nM
CCC[C@H](NC(=O)CN(C)C(=O)[C@H](Cc1ccc(O)cc1)NC(=O)[C@H](CCC(=O)O)NC(=O)[C@H](Cc1c[nH]c2ncccc12)NC(=O)[C@H](Cc1ccc(O)cc1)NC(=O)[C@@H](NC(=O)[C@H](CC(N)=O)NC(=O)[C@H](CCC(=O)O)NC(=O)[C@H](Cc1ccc(O)cc1)NC(C)=O)C(C)(C)C)C(=O)N(C)[C@@H](CO)C(N)=O [Compound R3006, Ac-Y-E-N-Tbg-Y-azaTrp-E-Y-(N-Me)G-Nvl-(N-Me)S-NH2] (Ac-YEN[Tle]Y[Trp(7-aza)]EY[Sar][Nva][NMeS]-NH2)	267 nM
CCC[C@H](NC(C)=O)C(=O)N[C@H]1CSCc2cccc(c2)CSC[C@@H](C(=O)N(C)[C@@H](CO)C(=O)N[C@H](C(=O)N[C@@H](CCCCN)C(=O)N[C@@H](Cc2c[nH]c3ncccc23)C(=O)N[C@@H](CCC(=O)O)C(=O)N[C@@H](Cc2ccc(O)cc2)C(N)=O)C(C)(C)C)NC(=O)[C@H](Cc2ccc(O)cc2)NC(=O)[C@H](c2ccccc2)NC(=O)[C@H](CCC(=O)O)NC(=O)[C@H](CCCCN)NC1=O [Compound R3007, [mXylyl(2,7)]Ac-Nvl-C-K-E-Pbg-Y-C-(N-Me)S-Tbg-K-azaTrp-E-Y-NH2] (Ac-[Nva]CKE[Phg]YC[NMeS][Tle]K[Trp(7-aza)]EY-NH2; linker 2-7 via mXylylene)	314 nM
CCC[C@H](NC(=O)[C@@H]1CCCN1C(=O)[C@H](CCC)NC(=O)[C@@H]1CSCc2cccc(c2)CSC[C@H](NC(=O)[C@H](CCC)NC(C)=O)C(=O)N[C@@H](Cc2ccc(O)cc2)C(=O)N[C@@H](CCC(=O)O)C(=O)N(C)CC(=O)N[C@@H](C(C)(C)C)C(=O)N[C@@H](Cc2ccc(O)cc2)C(=O)N[C@@H](Cc2c[nH]c3ncccc23)C(=O)N[C@@H](CCC(=O)O)C(=O)N1)C(N)=O [Compound R3009, [mXylyl(2,10)]Ac-Nvl-C-Y-E-(N-Me)G-Tbg-Y-azaTrp-E-C-Nvl-P-Nvl-NH2] (Ac-[Nva]CYE[Sar][Tle]Y[Trp(7-aza)]EC[Nva]P[Nva]-NH2; linker 2-10 via mXylylene)	> 100000 nM
CCC[C@H](NC(C)=O)C(=O)N[C@H]1CSCc2cccc(c2)CSC[C@@H](C(N)=O)NC(=O)[C@@H]2CCCN2C(=O)[C@H](CCC)NC(=O)[C@H](CCC)NC(=O)[C@H](CCC(=O)O)NC(=O)[C@H](Cc2c[nH]c3ncccc23)NC(=O)[C@H](Cc2ccc(O)cc2)NC(=O)[C@H](C(C)(C)C)NC(=O)CN(C)C(=O)[C@H](CCC(=O)O)NC(=O)[C@H](Cc2ccc(O)cc2)NC1=O [Compound R3010, [mXylyl(2,13)]Ac-Nvl-C-Y-E-(N-Me)G-Tbg-Y-azaTrp-E-Nvl-Nvl-P-C-NH2] (Ac-[Nva]CYE[Sar][Tle]Y[Trp(7-aza)]E[Nva][Nva]PC-NH2; linker 2-13 via mXylylene)	> 100000 nM
CCC[C@H](NC(=O)[C@@H]1CSCc2cccc(c2)CSC[C@H](NC(=O)[C@H](CCC)NC(C)=O)C(=O)N[C@@H](c2ccccc2)C(=O)N[C@@H]([C@@H](C)O)C(=O)N[C@@H](Cc2c[nH]c3ncccc23)C(=O)N[C@@H](CCC(=O)O)C(=O)N[C@@H](Cc2ccc(O)cc2)C(=O)N(C)[C@@H](CO)C(=O)N[C@@H](Cc2c[nH]cn2)C(=O)N1)C(N)=O [Compound R3012, [mXylyl(2,10)]Ac-Nvl-C-Phg-T-azaTrp-E-Y-(N-Me)S-H-C-Nvl-NH2] (Ac-[Nva]C[Phg]T[Trp(7-aza)]EY[NMeS]HC[Nva]-NH2; linker 2-10 via mXylylene)	148 nM
CCC[C@H](NC(C)=O)C(=O)N[C@H]1CSCc2cccc(c2)CSC[C@@H](C(N)=O)NC(=O)[C@H](Cc2c[nH]cn2)NC(=O)[C@H](CO)N(C)C(=O)[C@H](Cc2ccc(O)cc2)NC(=O)[C@H](CCC(=O)O)NC(=O)[C@H](Cc2c[nH]c3ncccc23)NC(=O)[C@H]([C@@H](C)O)NC(=O)[C@H](c2ccccc2)NC1=O [Compound R3013, [mXyly1(2,10)]Ac-Nvl-C-Phg-T-azaTrp-E-Y-(N-Me)S-H-C-NH2] (Ac-[Nva]C[Phg]T[Trp(7-aza)]EY[NMeS]HC-NH2; linker 2-10 via mXylylene)	344 nM
CC(=O)N[C@H]1CSCc2cccc(c2)CSC[C@@H](C(N)=O)NC(=O)[C@H](Cc2c[nH]cn2)NC(=O)[C@H](CO)N(C)C(=O)[C@H](Cc2ccc(O)cc2)NC(=O)[C@H](CCC(=O)O)NC(=O)[C@H](Cc2c[nH]c3ncccc23)NC(=O)[C@H](Cc2ccc(O)cc2)NC(=O)[C@H](C(C)(C)C)NC1=O [Compound R3016, [mXylyl(1,9)]Ac-C-Tbg-Y-azaTrp-E-Y-(N-Me)S-H-C-NH2] (Ac-C[Tle]Y[Trp(7-aza)]EY[NMeS]HC-NH2; linker 1-9 via mXylylene)	> 13000 nM

From patent publication US10208089B2, “Modulation of complement activity” (priority 2014, dated 2019)
